Measured values published in ChEMBL document CHEMBL5390199, “Discovery of novel N-aryl-2-trifluoromethyl-quinazoline-4-amine derivatives as the inhibitors of tubulin polymerization in leukemia cells” (Eur J Med Chem, 2023).
Active and inactive are the calls of the source. The rule behind the calls is not given here.

Experiments:
[1] = test system: HEL; experiment: Cytotoxicity against human HEL cells assessed as inhibition of cell growth incubated for 48 hrs by MTT assay; type: functional, cell-based
[2] = test system: K562; experiment: Cytotoxicity against human K562 cells assessed as inhibition of cell growth incubated for 48 hrs by MTT assay; type: functional, cell-based; conditions: K562, 48 h
[3] = test system: HeLa; experiment: Cytotoxicity against human HeLa cells assessed as inhibition of cell growth incubated for 48 hrs by MTT assay; type: functional, cell-based
[4] = test system: LNCaP; experiment: Cytotoxicity against human LNCaP cells assessed as inhibition of cell growth incubated for 48 hrs by MTT assay; type: functional, cell-based
[5] = test system: K562; experiment: Induction of cell cycle arrest in human K562 cells assessed as reduction in accumulation of cells at G0/G1 phase incubated for 12 hrs by flow cytometry; type: functional, cell-based
[6] = test system: K562; experiment: Induction of apoptosis in human K562 cells at 0.5 uM incubated for 48 hrs by annexin V-FITC/propidium iodide staining based flow cytometry relative to control; type: functional
[7] = Selectivity index, ratio of IC50 for cytotoxicity against human L02 cells to IC50 for cytotoxicity against human K562 cells; type: toxicity, cell-based; conditions: L02 cells and K562 cells, read-out: Ratio IC50
[8] = test system: K562; experiment: Induction of cell cycle arrest in human K562 cells assessed as reduction in accumulation of cells at S phase incubated for 12 hrs by flow cytometry; type: functional, cell-based
[9] = test system: HEL; experiment: Induction of morphological changes in human HEL cells by fluorescence microscopic analysis; type: functional, cell-based
[10] = test system: K562; experiment: Induction of cell cycle arrest in human K562 cells assessed as increase in accumulation of cells at G2/M phase incubated for 12 hrs by flow cytometry; type: functional, cell-based
[11] = test system: K562; experiment: Induction of morphological changes in human K562 cells by fluorescence microscopic analysis; type: functional, cell-based
[12] = Cytotoxicity against human L02 cells assessed as inhibition of cell growth incubated for 48 hrs by MTT assay; type: toxicity, cell-based
[13] = test system: HUVEC; experiment: Antiangiogenic activity against human HUVEC cells assessed as inhibition of cell migration at 0.5 uM measured after 24 hrs by scratch wound healing assay; type: functional, cell-based
[14] = test system: HEL; experiment: Induction of cell cycle arrest in human HEL cells assessed as increase in accumulation of cells at G2/M phase incubated for 12 hrs by flow cytometry; type: functional, cell-based
[15] = Selectivity index, ratio of IC50 for cytotoxicity against human L02 cells to IC50 for cytotoxicity against human HEL cells
[16] = test system: HEL; experiment: Induction of cell cycle arrest in human HEL cells assessed as reduction in accumulation of cells at S phase incubated for 12 hrs by flow cytometry; type: functional, cell-based
[17] = test system: HEL; experiment: Induction of cell cycle arrest in human HEL cells assessed as reduction in accumulation of cells at G0/G1 phase incubated for 12 hrs by flow cytometry; type: functional, cell-based
[18] = test system: HEL; experiment: Induction of apoptosis in human HEL cells at 0.5 uM incubated for 48 hrs by annexin V-FITC/propidium iodide staining based flow cytometry relative to control; type: functional
[19] = target: T1, Tubulin (Homo sapiens) (UniProt P68371+Q9H4B7+P0DPH7+P68366+Q13509+Q71U36+P04350+Q3ZCM7+P07437+P68363+Q9BQE3+Q6PEY2+Q13885+Q9BVA1+Q9BUF5); experiment: Inhibition of microtubule polymerization in human K562 cells at 0.5 uM measured for 60 mins; type: cell-based
[20] = target: Tubulin beta (Homo sapiens) (UniProt P68371+Q9H4B7+Q13509+P04350+Q3ZCM7+P07437+Q13885+Q9BVA1+Q9BUF5+A6NNZ2); experiment: Binding affinity to beta-tubulin colchicine binding site in human K562 cells assessed as inhibition of EBI-beta-tubulin adduct band formation preincubated for 2 hrs followed by EBI addition and measured after 1.5 hrs by EBI competition based Western blot analysis; type: cell-based; conditions: dose 0.2-25 µM, time 3.5 hrs
[21] = target: T1, Tubulin (Homo sapiens); experiment: Induction of microtubule depolymerization in human K562 cells at 500 nM incubated for 24 hrs by confocal microscopic analysis; type: cell-based
[22] = target: T1, Tubulin (Homo sapiens); experiment: Induction of microtubule depolymerization in human K562 cells assessed as aggregation of microtubule fibers at 100 nM incubated for 24 hrs by confocal microscopic analysis; type: cell-based
[23] = Homo sapiens, HeLa, 48 h, read-out: IC50

Row | SMILES | IC50 [1] | IC50 [2] | IC50 [3, 23] | IC50 [4] | Activity [9] | Activity [11] | Activity [13] | other results
1 | COc1cc2c(c(OC)c1OC)-c1ccc(OC)c(=O)cc1[C@@H](NC(C)=O)CC2 [COLCHICINE] | 156 nM | 975 nM | 15 nM | 245 nM | – | – | – | –
2 | CNc1cc(N(C)c2nc(C(F)(F)F)nc3ccc(F)cc23)ccc1OC | 273 nM | 2250 nM | 88 nM | 668 nM | – | – | – | –
3 | COc1ccc(N(C)c2nc(C(F)(F)F)nc3cc(OC)c(OCCCN4CCCC4)cc23)cc1 | 1570 nM | 2410 nM | 445 nM | 172 nM | – | – | – | –
4 | COc1ccc(N(C)c2nc(C(F)(F)F)nc3ccc(Cl)cc23)cc1[N+](=O)[O-] | 397 nM | 177 nM | 1000 nM | 589 nM | Active | Active | Active | Activity [5]: Active; Activity [6]: 12.7%; selectivity ratio [7]: 3.22; Activity [8]: Active; Activity [10]: Active; IC50 at 48 h [12]: 570 nM
5 | C=CC(=O)Nc1cc(N(C)c2nc(C(F)(F)F)nc3ccc(F)cc23)ccc1OC | 422 nM | 986 nM | 165 nM | 402 nM | – | – | – | –
6 | COc1cc2nc(C(F)(F)F)nc(N(C)c3ccc4c(ccn4C)c3)c2cc1O | 468 nM | 2260 nM | 1120 nM | 481 nM | – | – | – | –
7 | COc1ccc(N(C)c2nc(C(F)(F)F)nc3ccc(F)cc23)cc1NC(C)=O | 1120 nM | 1590 nM | 46 nM | 810 nM | – | – | – | –
8 | COc1ccc(N(C)c2nc(C(F)(F)F)nc3cc(OC)c(O)cc23)cc1 | 4520 nM | 2520 nM | – | 1630 nM | – | – | – | IC50 ([3]; hela): Not Active
9 | COc1ccc(N(C)c2nc(C(F)(F)F)nc3ccc(C)cc23)cc1 | 34 nM | 3280 nM | 141 nM | 237 nM | Active | Active | Active | Activity [14]: Active; Ratio IC50 [15]: 3.38; Activity [16]: Active; Activity [17]: Active; Activity [18]: 29.2%
10 | COc1ccc(N(C)c2nc(C(F)(F)F)nc3ccc(Cl)cc23)c([N+](=O)[O-])c1 | 1320 nM | 2250 nM | 613 nM | 2590 nM | – | – | – | –
11 | CN(c1ccc2c(ccn2C)c1)c1nc(C(F)(F)F)nc2ccc(F)cc12 | 363 nM | 450 nM | 22 nM | 96 nM | Active | Active | Active | Activity [5]: Active; Activity [6]: 20.3%; selectivity ratio [7]: 6.29; Activity [8]: Active; Activity [10]: Active; IC50 at 48 h [12]: 2830 nM
12 | COc1ccc(N(C)c2nc(C(F)(F)F)nc3ccc(Cl)cc23)cc1 | 294 nM | 294 nM | 332 nM | 143 nM | Active | Active | Active | Activity [5]: Active; Activity [14]: Active; Activity [6]: 19.7%; selectivity ratio [7]: 1.1; Activity [8]: Active; Ratio IC50 [15]: 8.28; Activity [16]: Active; Activity [10]: Active; IC50 at 48 h [12]: 323 nM; Activity [17]: Active; Activity [18]: 31%
13 | CN(c1ccc2c(ccn2C)c1)c1nc(C(F)(F)F)nc2ccc(Cl)cc12 | 89 nM | 684 nM | 335 nM | 138 nM | Active | Active | Active | Activity [14]: Active; Ratio IC50 [15]: 3.45; Activity [16]: Active; Activity [17]: Active; Activity [18]: 28.5%
14 | COc1ccc(N(C)c2nc(C(F)(F)F)nc3ccc(F)cc23)cc1 | 99 nM | 265 nM | 110 nM | 377 nM | Active | Active | Active | Activity [5]: Active; Activity [14]: Active; Activity [6]: 19.9%; Activity [19]: Active; selectivity ratio [7]: 7.36; Activity [20]: Dose-Dependent Effect; Activity [8]: Active; Ratio IC50 [15]: 19.7; Activity [16]: Active; Activity [21]: Active; Activity [10]: Active; IC50 at 48 h [12]: 1950 nM; Activity [17]: Active; Activity [18]: 32.3%
15 | CCN(CC)c1cc(N(C)c2nc(C(F)(F)F)nc3ccc(F)cc23)ccc1OC | 11700 nM | 21600 nM | 8390 nM | 13300 nM | – | – | – | –
16 | COc1ccc(N(C)c2nc(C(F)(F)F)nc3ccc(F)cc23)cc1NC(=O)CCl | 595 nM | 1390 nM | 37 nM | 256 nM | – | – | – | –
17 | Cc1ccc2nc(C(F)(F)F)nc(N(C)c3ccc(C(F)(F)F)cc3)c2c1 | 1400 nM | 1930 nM | 2870 nM | 2660 nM | – | – | – | –
18 | CCNc1cc(N(C)c2nc(C(F)(F)F)nc3ccc(F)cc23)ccc1OC | 6960 nM | 2420 nM | 201 nM | 2560 nM | – | – | – | –
19 | CC(=O)O[C@H]1C(=O)[C@@]2(C)[C@H]([C@H](OC(=O)c3ccccc3)[C@]3(O)C[C@H](OC(=O)[C@H](O)[C@@H](NC(=O)c4ccccc4)c4ccccc4)C(C)=C1C3(C)C)[C@]1(OC(C)=O)CO[C@@H]1C[C@@H]2O [PACLITAXEL] | 200 nM | 874 nM | 6 nM | 58 nM | – | – | – | Activity [22]: Active
20 | Cc1ccc2nc(C(F)(F)F)nc(N(C)c3ccc4c(ccn4C)c3)c2c1 | 992 nM | 1210 nM | 1300 nM | 945 nM | – | – | – | –
